Assay results as given in PMC6116501, “Improved secretory expression of lignocellulolytic enzymes in Kluyveromyces marxianus by promoter and signal sequence engineering” (Biotechnology for Biofuels, 2018).

Biological target: T1, Est1E (uncultured bacterium, UniProt A0A345Z1H0)
T1 construct: 3 extra residues kept; no His tag; 29 kDa theoretical; purified by ion exchange and gel filtration
T1 sequence (A0A345Z1H0 1-248): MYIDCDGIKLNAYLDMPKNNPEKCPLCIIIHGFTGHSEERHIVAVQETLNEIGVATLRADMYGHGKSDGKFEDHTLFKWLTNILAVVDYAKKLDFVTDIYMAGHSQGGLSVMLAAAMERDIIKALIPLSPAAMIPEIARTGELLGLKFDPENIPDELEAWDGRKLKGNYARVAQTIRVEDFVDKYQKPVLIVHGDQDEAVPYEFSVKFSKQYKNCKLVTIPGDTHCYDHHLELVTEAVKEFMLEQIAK
Experiment: absorbance at […] nm of released 2-chloro-4-nitrophenol
Assay type: biochemical
Settings: about […] substrate in PBST pH […] °C, […] min (assay as described for culture supernatant; also run on purified enzyme)

With `COc1cc(/C=C/C(=O)Oc2ccc([N+](=O)[O-])cc2Cl)ccc1O` [CNPF, 2-chloro-4-nitrophenyl ferulate] the “absorbance at 410 nm of released 2-chloro-4-nitrophenol” value was “The activity of Est1E in the supernatant was measured by means of 2-chloro-4-nitrophenyl ferulate (CNPF)”.
